Source: BindingDB's records for PubMed 9400006 (Emory University, 1997)

What was measured:
[1] = molecular target: T1, Muscarinic acetylcholine receptor M2 (Rattus norvegicus, UniProt P10980)
T1 sequence (P10980 whole entry): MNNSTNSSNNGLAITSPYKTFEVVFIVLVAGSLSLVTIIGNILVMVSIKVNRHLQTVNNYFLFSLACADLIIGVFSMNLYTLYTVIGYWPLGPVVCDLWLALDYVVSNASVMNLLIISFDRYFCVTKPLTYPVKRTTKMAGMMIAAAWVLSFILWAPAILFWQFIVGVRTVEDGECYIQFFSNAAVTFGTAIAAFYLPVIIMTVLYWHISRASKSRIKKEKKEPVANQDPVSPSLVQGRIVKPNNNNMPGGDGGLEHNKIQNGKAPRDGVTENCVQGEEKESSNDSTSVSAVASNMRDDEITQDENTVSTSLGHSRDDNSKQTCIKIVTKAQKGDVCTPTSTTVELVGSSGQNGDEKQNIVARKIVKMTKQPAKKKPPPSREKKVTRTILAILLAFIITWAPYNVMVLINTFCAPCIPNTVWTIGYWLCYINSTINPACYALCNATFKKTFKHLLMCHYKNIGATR

[2] = molecular target: T2, 5-hydroxytryptamine receptor 1A (Rattus norvegicus, UniProt P19327)
T2 sequence (P19327 whole entry): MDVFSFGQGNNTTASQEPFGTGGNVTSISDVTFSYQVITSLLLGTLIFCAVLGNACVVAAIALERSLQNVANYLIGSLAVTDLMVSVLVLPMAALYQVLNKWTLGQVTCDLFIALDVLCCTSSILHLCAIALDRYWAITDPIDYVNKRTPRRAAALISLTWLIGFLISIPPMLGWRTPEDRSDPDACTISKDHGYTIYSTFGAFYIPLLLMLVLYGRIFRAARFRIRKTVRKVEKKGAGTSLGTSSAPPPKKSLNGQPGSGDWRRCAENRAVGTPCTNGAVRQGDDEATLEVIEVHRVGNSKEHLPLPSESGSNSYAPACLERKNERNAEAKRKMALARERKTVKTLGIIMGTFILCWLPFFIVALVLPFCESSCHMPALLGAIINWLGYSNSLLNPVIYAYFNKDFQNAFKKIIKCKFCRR

[3] = molecular target: T3, Alpha-2A adrenergic receptor (Homo sapiens, UniProt P08913)
T3 sequence (P08913 whole entry): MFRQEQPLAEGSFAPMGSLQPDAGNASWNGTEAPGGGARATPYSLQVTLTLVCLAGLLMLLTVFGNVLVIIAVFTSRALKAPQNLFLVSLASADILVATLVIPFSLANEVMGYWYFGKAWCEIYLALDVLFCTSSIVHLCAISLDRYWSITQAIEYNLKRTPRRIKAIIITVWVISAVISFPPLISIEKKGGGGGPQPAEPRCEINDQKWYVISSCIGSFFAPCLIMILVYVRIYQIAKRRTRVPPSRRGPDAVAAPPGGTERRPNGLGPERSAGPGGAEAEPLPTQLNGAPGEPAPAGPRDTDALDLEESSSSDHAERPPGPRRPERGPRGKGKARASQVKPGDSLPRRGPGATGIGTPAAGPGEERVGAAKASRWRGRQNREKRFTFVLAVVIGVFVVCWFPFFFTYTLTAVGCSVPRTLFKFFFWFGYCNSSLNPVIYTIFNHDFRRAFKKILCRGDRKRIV

[4] = molecular target: Sodium-dependent serotonin transporter (Rattus norvegicus, UniProt P31652)
Chain of Sodium-dependent serotonin transporter (P31652 whole entry): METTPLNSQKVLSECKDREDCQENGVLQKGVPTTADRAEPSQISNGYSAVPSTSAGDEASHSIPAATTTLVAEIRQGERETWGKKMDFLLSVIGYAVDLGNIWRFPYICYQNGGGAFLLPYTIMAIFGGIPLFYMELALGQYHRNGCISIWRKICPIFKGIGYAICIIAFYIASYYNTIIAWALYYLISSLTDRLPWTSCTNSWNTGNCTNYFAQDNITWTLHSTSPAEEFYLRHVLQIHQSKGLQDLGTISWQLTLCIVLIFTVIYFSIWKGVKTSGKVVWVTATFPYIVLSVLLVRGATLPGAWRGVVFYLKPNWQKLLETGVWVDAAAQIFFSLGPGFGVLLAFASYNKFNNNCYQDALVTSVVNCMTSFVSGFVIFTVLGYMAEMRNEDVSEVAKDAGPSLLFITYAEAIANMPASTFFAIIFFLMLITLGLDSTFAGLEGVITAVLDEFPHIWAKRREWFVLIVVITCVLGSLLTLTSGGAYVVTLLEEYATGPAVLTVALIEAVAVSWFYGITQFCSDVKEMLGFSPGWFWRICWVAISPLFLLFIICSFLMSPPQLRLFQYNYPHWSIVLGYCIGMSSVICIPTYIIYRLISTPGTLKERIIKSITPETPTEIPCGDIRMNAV

Compound | Ki [1] [nM] | Ki [2] [nM] | Ki [3] [nM] | Ki [4] [nM]
CNCCCN1c2ccccc2CCc2ccccc21 [Desmethylimipramine] | 37 |  |  | 
CCc1nn(CCCN2CCN(c3cccc(Cl)c3)CC2)c(=O)n1CCOc1ccccc1 [2-{3-[4-(3-chlorophenyl)piperazin-1-yl]propyl}-5-ethyl-4-(2-phenoxyethyl)-2,4-dihydro-3H-1,2,4-triazol-3-one] | 4570 | 52 |  | 
Fc1ccc([C@@H]2CCNC[C@H]2COc2ccc3c(c2)OCO3)cc1 [PAROXETINE] | 42 | > 10000 |  | 
CN[C@@H]1CC[C@@H](c2ccc(Cl)c(Cl)c2)c2ccccc21 [[4-(3,4-Dichloro-phenyl)-1,2,3,4-tetrahydro-naphthalen-1-yl]-methyl-amine] | 232 | 3660 |  | 
COc1ccc(C(CN(C)C)C2(O)CCCCC2)cc1 (stereo unspecified) [NSC_62923] | > 10000 | > 10000 | > 10000 | 
CC(O)c1nn(CCCN2CCN(c3ccc(Cl)cc3)CC2)c(=O)n1CCOc1ccccc1 (stereo unspecified) [NSC_127096] | > 10000 | 56 | 63 | 612
CN(C)CCC=C1c2ccccc2CCc2ccccc21 | 2.6 | 129 | 114 | 
Clc1cccc(N2CCNCC2)c1 [mCPP] | 4700 | 16 | 112 | 218
O=c1n(CCCN2CCN(c3cccc(Cl)c3)CC2)nc2ccccn12 [2-{3-[4-(3-chlorophenyl)piperazin-1-yl]propyl}[1,2,4]triazolo[4,3-a]pyridin-3(2H)-one] | > 10000 |  |  | 
O=c1[nH]n(CCCN2CCN(c3cccc(Cl)c3)CC2)c(=O)n1CCOc1ccccc1 [Triazoledione] | > 10000 | 1370 | 1920 | > 10000
